# Measurements reported in BindingDB's records for doi:10.7270/Q2JQ0ZH4 (Burnham Center For Chemical Genomics, 2011).
# Biological target: T1, Mitochondrial import inner membrane translocase subunit TIM10 (Saccharomyces cerevisiae (strain ATCC 204508 / S288c), UniProt P87108)
# T1 sequence (P87108 whole entry): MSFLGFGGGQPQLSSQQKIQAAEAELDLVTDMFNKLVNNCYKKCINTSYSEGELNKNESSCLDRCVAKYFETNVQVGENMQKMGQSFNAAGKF
# Assay: tim10-1 yeast luminescent signal inhibition – luminescence, S. cerevisiae, uHTS hits, counter-screen for tim23-1 inhibitor project, dose response (AID 504657)
row,SMILES,IC50 [µM]
1,O=C1c2ccccc2-c2n[nH]c3cccc1c23,> 100
2,Cc1ccc2nc(-n3c(O)c[nH]c3=S)sc2c1,> 100
3,COC(=N)C(C#N)N=Cc1ccccc1Cl (stereo not given) [(E)-3-amino-2-[(2-chlorophenyl)methylideneamino]-3-methoxy-2-propenenitrile],> 100

# Further lines, results first:
row,IC50 [µM],SMILES
1,> 100,C(=CN=Nc1nc2ccccc2[nH]1)Cc1ccccc1 [MLS000390936]
2,> 100,Oc1ccccc1C1=NNC(c2ccccc2)S1 (stereo not given) [MLS001212798]
